Legend:
[1] = rat; for therapeutische Index (Q = LD₅₀/ED₂₀): acute test, intravenous injection
g-Strophantinarrhythmie = experiment: g-Strophanthin arrhythmia, guinea pig, i.v.; format: in vivo, Meerschweinchen
Protocol: Die Methode beruht auf der Erzeugung ventrikulärer Arrhythmien durch g-Strophantin, das männlichen Meerschweinchen in Urethannarkose (Körpermasse 300-350 g) in der Dosierung von 30 µg/kg/min über die Vena jugularis infundiert wurde. Bewertungskriterien sind hierbei die am EKG unter g-Strophantin zu beobachtenden ersten Extrasystolen sowie der Eintritt der Asystolie. Die Verzögerung des Auftretens dieser Ereignisse unter Substanzgabe wird berechnet und ist als Maß der antiarrhythmischen Effektivität zu werten.

Koronararterienokklusion = experiment: Coronary artery occlusion, rat, i.v. (early-phase arrhythmias); format: in vivo, Ratte; settings: for Überlebensrate n. 20 min: 2 . 10⁻⁵ mol/kg i.v. 3 min before occlusion, control 33; for Normaler Sinusrhythmus / Tod durch Bradyk. / Auftreten von Arrhythmien VF / Auftreten von Arrhythmien VT / Auftreten von Arrhythmien andere: 2 . 10⁻⁵ mol/kg i.v.; for Normaler Sinusrhythmus: control 0; for Tod durch Bradyk.: control 30; for Auftreten von Arrhythmien VF: control 59; for Auftreten von Arrhythmien VT / Auftreten von Arrhythmien andere: control 82
Protocol: Die Untersuchungen zur Beeinflussung der Arrhythmien in der Frühphase nach Koronarokklusion erfolgten an männlichen Wistarratten (Körpermasse 200-250 g) in Pentobarbitalnarkose. Nach Ligatur der linken Koronararterie wurden die Überlebensrate sowie das Auftreten verschiedener Arrhythmieformen innerhalb 20 min nach Okklusion bewertet. Für die überlebenden Tiere erfolgten zusätzlich die Bestimmung des Zeitpunktes des Einsetzens der Arrhythmien und deren Dauer in min sowie die Zahl der ventrikulären Extrasystolen. Das Arrhythmiegeschehen in der Frühphase nach Ligatur wurde von einer Reihe Verbindungen der allgemeinen Formel 1 nach i.v.-Injektion im positiven Sinne beeinflußt. Beispielsweise wirken (Z)- bzw. (E)-2-Amino-5-chlorbenzophenonamidinohydrazonacetat (Beispiel 21 bzw. 32) dosisabhängig und stark protektiv nach i.v. Gabe (3 min vor Okklusion) von 1 . 10⁻⁵ und 2,1 . 10⁻⁵mol/kg. Die an der Aconitinarrhythmie gefundene gute antiarrhythmische Wirkung wurde damit an der Okklusion bestätigt, was durch die in Tabelle 7 zusammengestellten Ergebnisse dokumentiert werden soll. TABELLE 7

Infarktgröße = experiment: Infarct size determination (p-NBT), rat, i.v.; format: in vivo, Ratte; settings: for Hemmung der Infarktgröße x %: significant
Source text: Die Bestimmung der Herzinfarktgröße ist ein wichtiger Parameter zum Nachweis antiischämischer Wirkqualitäten für eine Substanz. Die hier angewendete markohistochemische Infarktgrößenbestimmung durch Inkubation mit p-Nitroblautetrazoliumsalz (p-NBT) beruht auf einem Dehydrogenasenachweis, wobei p-NBT als Wasserstoffakzeptor dient und die damit verbundene Reduktion des Salzes zu einer Farbänderung desselben führt. Die Beeinflussung der Größe des ischämischen Areals - die Ischämie wurde durch Ligatur der linken Koronararterie männlicher Wistarratten (Körpermasse 200-250 g) erzeugt - wurde nach i.v. Applikation (3 min vor Okklusion) einiger Verbindungen der allgemeinen Formel 1 untersucht. Die hier erhobenen Befunde spiegeln eindeutig die myokardprotektive Wirkkomponente dieser Verbindungen wieder. […] (Beispiel 21) bzw. das (E)-/(Z)-2-Amino-5-chlorbenzophenon-N-phenylamidinohydrazonnitrat [B] (Beispiel 3) wurden die in Tabelle 9 wiedergegebenen Resultate erhalten. TABELLE 9

[2] = tested on: schnellen Na⁺-Einwärtsstromes; experiment: Voltage clamp on isolated adult rat heart cells
[3] = Clinical trial stage I, intravenous, man
[4] = Toxicology, repeated oral dosing, rat; settings: per os, repeated administration
[5] = Toxicology, repeated oral dosing, minipig; settings: per os, repeated administration
[6] = tested on: isoprenalininduzierten Glykogenolyse; experiment: Isoprenaline ischaemia, rat, i.v. and p.o. (heart glycogen content); format: in vivo, Ratte; settings: mean of n = 10
Protocol: Der Myokardschutz durch verschiedene Verbindungen der allgemeinen Formel 1 wurde nach i.v. und p.o. Applikation der Verbindungen am Modell der Isoprenalinischämie der Ratte geprüft. Die für diese Untersuchungen verwendete Methode erfaßt die Veränderungen des Glykogengehaltes im Herzgewebe unter Isoprenalin und dessen Beeinflussung durch Testsubstanzen. Isoprenalin wurde dabei intraperitoneal in Dosis von 5 mg/kg verabfolgt. Die i.v. Injektion der Prüfstoffe erfolgte unmittelbar vor der Isoprenalingabe, die orale Applikation 30 min davor. Als Versuchstiere wurden männliche Wistarratten (Körpermasse 200-250 g) eingesetzt. Einige der Verbindungen zeigten eine auffallende myokardprotektive Wirksamkeit. […] Die nach i.v.- bzw. p.o.-Applikation aus je n = 10 Tieren pro Dosis beobachteten Hemmwerte (Mittelwerte) gegenüber der Isoprenalininwirkung sind in Tabelle 8 aufgeführt. Tabelle 8

[7] = 5 . 10⁻⁷ mol/kg i.v., significant vs control

CC[C@H]1[C@@H]2C[C@H]3[C@@H]4N(C)c5ccccc5[C@]45C[C@@H]([C@@H]2[C@H]5O)N3[C@@H]1O [Ajmalin]
therapeutische Index (Q = LD₅₀/ED₂₀) [1]: 6,8

N=C(NN=C(c1ccccc1)c1cc(Cl)ccc1N)Nc1ccccc1.O=[N+]([O-])O [Beispiel 3, (E)-/(Z)-2-Amino-5-chlorbenzophenon-N-phenylamidinohydrazonnitrat]
antiarrhythmische Wirkung gegenüber der g-strophantininduzierten Extrasystolie (g-Strophantinarrhythmie; 1 . 10⁻⁶ mol/kg i.v.): +19%
antiarrhythmische Wirkung gegenüber der g-strophantininduzierten Extrasystolie (g-Strophantinarrhythmie; 2,10 . 10⁻⁶ mol/kg i.v.): +35%
normalen Sinusrhythmus (Koronararterienokklusion; 5 . 10⁻⁷ mol/kg i.v.): 50%
Auftreten verschiedener Arrhythmieformen (VF) (Koronararterienokklusion; [7]): 10%
Auftreten verschiedener Arrhythmieformen (VT) (Koronararterienokklusion; [7]): 30%
Auftreten verschiedener Arrhythmieformen (andere) (Koronararterienokklusion; [7]): 50%
Überlebensrate (Koronararterienokklusion; [7]): 80%
ischämisches Gewebe x % (Infarktgröße; 1 . 10⁻⁷ mol/kg i.v. 3 min before occlusion, control 46,1): 21,0%
Hemmung der Infarktgröße x % (Infarktgröße; 1 . 10⁻⁷ mol/kg i.v.): 54,4 s %

Cl.N=C(N)N/N=C(\c1ccccc1)c1cc(Cl)ccc1N [Beispiel 30, (E)-2-Amino-5-chlorbenzophenonamidinohydrazonhydrochlorid]
Verzögerung des Eintritts der ersten Extrasystolen (g-Strophantinarrhythmie; 1,25 . 10⁻⁶ mol/kg i.v.): 33%

CCOC(=O)Nc1ccc2c(c1)N(C(=O)CCN1CCOCC1)c1ccccc1S2 [Etmozin]
therapeutische Index (Q = LD₅₀/ED₂₀) [1]: 1,8

CCOc1ccccc1OCC(O)CNCCNCC(O)COc1ccccc1OCC (centres unmarked) [Falirythmin]
therapeutische Index (Q = LD₅₀/ED₂₀) [1]: 11,5

CC[C@H]1C2C[C@H]3[C@@H]4N(C)c5ccccc5[C@]45C[C@@H]([C@@H]2[C@H]5O)[N@@+]3(CC(O)CN(CC)CC)[C@@H]1O (some centres unmarked) [Tachmalcor]
therapeutische Index (Q = LD₅₀/ED₂₀) [1]: 25,5

(E)-2-Amino-5-chlorbenzophenonamidinohydrazonacetat [Beispiel 32]
Überlebensrate n. 20 min (Koronararterienokklusion): 71 s %
Normaler Sinusrhythmus (Koronararterienokklusion): 46 s %
Tod durch Bradyk. (Koronararterienokklusion): 19 ns %
Auftreten von Arrhythmien VF (Koronararterienokklusion): 8 s %
Auftreten von Arrhythmien VT (Koronararterienokklusion): 13 s %
Auftreten von Arrhythmien andere (Koronararterienokklusion): 54 ns %

(Z) -2-Amino-5-chlorbenzophenonamidinohydrazonacetat [Beispiel 21]
therapeutische Index (Q = LD₅₀/ED₂₀) [1]: 40,0
therapeutische Index Qp.o. ([1]; single oral administration): 74,3
schneller Na⁺-Einwärtsstrom [2]: Hemmung
Verzögerung des Auftretens der ersten Extrasystolen (g-Strophantinarrhythmie; 6,25 . 10⁻⁷ mol/kg i.v. 5 min before g-strophanthin infusion, significant): 28%
Dosierung, ab der die antiarrhythmische Aktivität ausreichend erscheint [3]: ≥ 0,25 mg/kg
Dosis, bei der die antiarrhythmische Aktivität beginnt [3]: 0,06 mg/kg
Dosen als gut verträglich eingeschätzt [4]: 25 mg/kg
Dosen als gut verträglich eingeschätzt [5]: 30 mg/kg
Überlebensrate n. 20 min (Koronararterienokklusion): 70 s %
Normaler Sinusrhythmus (Koronararterienokklusion): 26 s %
Tod durch Bradyk. (Koronararterienokklusion): 25 ns %
Auftreten von Arrhythmien VF (Koronararterienokklusion): 8 s %
Auftreten von Arrhythmien VT (Koronararterienokklusion): 13 s %
Auftreten von Arrhythmien andere (Koronararterienokklusion): 54 ns %
x % Hemmung ([6]; intravenös, 1,0 . 10⁻⁵ mol/kg): 48,7%
x % Hemmung ([6]; intravenös, 1,5 . 10⁻⁵ mol/kg): 37,6%
x % Hemmung ([6]; intravenös, 3,2 . 10⁻⁵ mol/kg): 45,0%
x % Hemmung ([6]; intravenös, 3,2 . 10⁻⁶ mol/kg): 5,9%
x % Hemmung ([6]; intravenös, 4,6 . 10⁻⁶ mol/kg): 26,7%
x % Hemmung ([6]; intravenös, 5,0 . 10⁻⁵ mol/kg): 69,6%
x % Hemmung ([6]; peroral, 1,0 . 10⁻⁴ mol/kg): 25,6%
x % Hemmung ([6]; peroral, 1,9 . 10⁻⁴ mol/kg): 81,4%
x % Hemmung ([6]; peroral, 3,7 . 10⁻⁴ mol/kg): 71,4%
x % Hemmung ([6]; peroral, 5,0 . 10⁻⁴ mol/kg): 85,3%
x % Hemmung ([6]; peroral, 7,2 . 10⁻⁵ mol/kg, 30 min before isoprenaline): 37,2%
ischämisches Gewebe x % (Infarktgröße; 2 . 10⁻⁵ mol/kg i.v. 3 min before occlusion, control 35,0): 15,2%
Hemmung der Infarktgröße x % (Infarktgröße; 2 . 10⁻⁵ mol/kg i.v.): 56,6 s %

Reference: patent EP0433526A1, “Medicine for the treatment of heart-circulatory illnesses, of arrhythmics in particular” (Richter, Peter, Prof. Dr.sc.nat., priority 1989, dated 1991)
